# What was measured:
# GABAa receptor = GABAa receptor binding assay (3H-RO15-1788 displacement); settings: rat cortical tissue homogenate; radioligand 0.5 nM 3H-RO15-1788 [3H-Flumazenil]; 30 min at 4° C.
# Method: The pharmaceutical utility of compounds of this invention are indicated by the following assay for GABAa receptor binding activity.
# Assays are carried out as described in Thomas and Tallman (J. Bio. Chem. 156:9838-9842 , J. Neurosci. 3:433-440, 1983). Rat cortical tissue is dissected and homogenized in 25 volumes (w/v) of 0.05 M Tris HCl buffer (pH 7.4 at 4° C.). The tissue homogenate is centrifuged in the cold (4°) at 20,000×g for 20′. The supernatant is decanted and the pellet is rehomogenized in the same volume of buffer and again centrifuged at 20,000×g. The supernatant is decanted and the pellet is frozen at −20° C. overnight. The pellet is then thawed and rehomogenized in 25 volume (original wt/vol) of buffer and the procedure is carried out twice. The pellet is finally resuspended in 50 volumes (w/vol of 0.05 M Tris HCl buffer (pH 7.4 at […]).
# Incubations contain […] of tissue homogenate, […] of radioligand 0.5 nM (^3H-RO15-1788 [^3H-Flumazenil] specific activity 80 Ci/mmol), drug or blocker and buffer to a total volume of […]. Incubations are carried for 30 min at 4° C. then are rapidly filtered through GFB filters to separate free and bound ligand. Filters are washed twice with fresh 0.05 M Tris HCl buffer (pH 7.4 at 4° C.) and counted in a liquid scintillation counter. […] diazepam is added to some tubes to determine nonspecific binding. Data are collected in triplicate determinations, averaged and % inhibition of total specific binding is calculated. Total Specific Binding=Total−Nonspecific. In some cases, the amounts of unlabeled drugs is varied and total displacement curves of binding are carried out.
smiles,measurement,setting,value
"CNCc1cccc(NC(=O)c2c[nH]c3c2C(=O)CCC3)c1 [Compound 1, N-[3-(Methylaminomethyl)phenyl]-4-oxo-4,5,6,7-tetrahydro-1H-indole-3-carboxamide]",melting point,,130 to 132 °C
same,Ki,GABAa receptor,90 nM
"COCCOc1ccc(NC(=O)c2c[nH]c3c2C(=O)CCC3)cc1 [Compound 2, N-[4-(Methoxyethoxy)phenyl]-4-oxo-4,5,6,7-tetrahydro-1H-indole-3-carboxamide]",Ki,GABAa receptor,29 nM
"CNCc1ccc(NC(=O)c2c[nH]c3c2C(=O)CCC3)c(F)c1 [Compound 3, N-[2-Fluoro-4-(methylaminomethyl)phenyl]-4-oxo-4,5,6,7-tetrahydro-1H-indole-3-carboxamide]",melting point,,186 to 188 °C
same,Ki,GABAa receptor,49 nM
"CNCCc1ccc(NC(=O)c2c[nH]c3c2C(=O)CCC3)cc1 [Compound 4, N-[4-(2-Methylaminoethyl)phenyl]-4-oxo-4,5,6,7-tetrahydro-1H-indole-3-carboxamide]",melting point,,197 to 200 °C
same,Ki,GABAa receptor,0.24 nM
"O=C(Nc1ccc(CNC2CC2)cc1)c1c[nH]c2c1C(=O)CCC2 [Compound 5, N-[4-(Cyclopropylaminomethyl)phenyl]-4-oxo-4,5,6,7-tetrahydro-1H-indole-3-carboxamide]",melting point,,171 to 173 °C
same,Ki,GABAa receptor,9 nM
"NCc1ccc(NC(=O)c2c[nH]c3c2C(=O)CCC3)cc1 [Compound 6, N-[4-(Aminomethyl)phenyl]-4-oxo-4,5,6,7-tetrahydro-1H-indole-3-carboxamide]",melting point,,> 200 °C (dec.)
same,Ki,GABAa receptor,9 nM
CNCc1ccc(NC(=O)c2c[nH]c3c2C(=O)CCCC3)cc1 [Compound 7],melting point,,173 to 175 °C
same,Ki,GABAa receptor,30 nM
"CC1(C)CC(=O)c2c(C(=O)Nc3cccc(CO)c3)c[nH]c2C1 [Compound 8, N-[3-(Hydroxymethyl)phenyl]-4-oxo-6,6-dimethyl-4,5,6,7-tetrahydro-1H-indole-3-carboxamide]",melting point,,233 to 235 °C
same,Ki,GABAa receptor,27 nM
"CC1CC(=O)c2c(C(=O)Nc3ccc(OCCO)cc3)c[nH]c2C1 (stereo not drawn) [Compound 9, N-[4-(2-Hydroxyethoxy)phenyl]-4-oxo-6-methyl-4,5,6,7-tetrahydro-1H-indole-3-carboxamide]",melting point,,245 to 247 °C
same,Ki,GABAa receptor,1.3 nM
"O=C(Nc1ccc2c(c1)OCO2)c1c[nH]c2c1C(=O)CCC2 [Compound 10, N-(1,3-Benzodioxol-5-yl)-4-oxo-4,5,6,7-tetrahydro-1H-indole-3-carboxamide]",melting point,,248 to 249 °C
same,Ki,GABAa receptor,37 nM
"O=C(Nc1ccc2c(c1)OCCO2)c1c[nH]c2c1C(=O)CCC2 [Compound 11, N-(2,3-Dihydro-1,4-benzodioxin-6-yl)-4-oxo-4,5,6,7-tetrahydro-1H-indole-3-carboxamide]",melting point,,254 to 256 °C
same,Ki,GABAa receptor,7 nM
"O=C(Nc1ccc2c(c1)OCCO2)c1c[nH]c2c1C(=O)CCCC2 [Compound 12, N-(2,3-Dihydro-1,4-benzodioxin-6-yl)-4-oxo-1,4,5,6,7,8-hexahydro-cyclohepta[b]pyrrole-3-carboxamide]",melting point,,222 to 223 °C
same,Ki,GABAa receptor,5 nM
"O=C(Nc1ccc2c(c1)NCC2)c1c[nH]c2c1C(=O)CCC2 [Compound 13, N-(2,3-Dihydro-1H-indol-6-yl)-4-oxo-4,5,6,7-tetrahydro-1H-indole-3-carboxamide]",melting point,,322 to 323 °C
same,Ki,GABAa receptor,24 nM
O=C(Nc1ccc(OCCO)nc1)c1c[nH]c2c1C(=O)CCC2 [Compound 14],Ki,GABAa receptor,3 nM
"CN(C)CCOc1ccc(NC(=O)c2c[nH]c3c2C(=O)CCC3)cc1F [Compound 89, N-[3-Fluoro-4-(2-dimethylaminoethoxy)phenyl]-4-oxo-4,5,6,7-tetrahydro-1H-indole-3-carboxamide]",melting point,,203 °C
"O=C(Nc1ccc(OCCN2CCCC2)cc1)c1c[nH]c2c1C(=O)CCC2 [Compound 90, N-[4-(2-Pyrrolidin-1-ylethoxy)phenyl]-4-oxo-4,5,6,7-tetrahydro-1H-indole-3-carboxamide]",melting point,,164 to 168 °C
"O=C(Nc1ccc(OCCn2ccnc2)cc1)c1c[nH]c2c1C(=O)CCC2 [Compound 91, N-[4-(2-Imidaz-1-ylethoxy)phenyl]-4-oxo-4,5,6,7-tetrahydro-1H-indole-3-carboxamide]",melting point,,226 to 230 °C
"O=C(Nc1ccc(OCCC2CCCCN2)cc1)c1c[nH]c2c1C(=O)CCC2 (stereo not drawn) [Compound 94, N-[4-(2-Piperidin-2-ylethoxy)phenyl]-4-oxo-4,5,6,7-tetrahydro-1H-indole-3-carboxamide]",melting point,,281 to 285 °C
"CC(C)(C)NCCOc1ccncc1NC(=O)c1c[nH]c2c1C(=O)CCC2 [Compound 112, N-[4-(2-t-Butylaminoethoxy)pyrid-3-yl]-4-oxo-4,5,6,7-tetrahydro-1H-indole-3-carboxamide]",melting point,,274 to 278 °C
"CN(C)CCOc1ccncc1NC(=O)c1c[nH]c2c1C(=O)CCC2 [Compound 122, N-[4-(2-Dimethylaminoethoxy)pyrid-3-yl]-4-oxo-4,5,6,7-tetrahydro-1H-indole-3-carboxamide]",melting point,,163 to 166 °C
"CN(C)CCCOc1ccncc1NC(=O)c1c[nH]c2c1C(=O)CCC2 [Compound 123, N-[4-(3-Dimethylaminopropoxy)pyrid-3-yl]-4-oxo-4,5,6,7-tetrahydro-1H-indole-3-carboxamide]",melting point,,247 °C
"O=C(Nc1cnccc1OCCN1CCCC1)c1c[nH]c2c1C(=O)CCC2 [Compound 124, N-[4-(2-Pyrrolidin-1-ylethoxy)pyrid-3-yl]-4-oxo-4,5,6,7-tetrahydro-1H-indole-3-carboxamide]",melting point,,148 to 150 °C
"CN1CCC(COc2ccncc2NC(=O)c2c[nH]c3c2C(=O)CCC3)C1 (stereo not drawn) [Compound 131, N-{4-[(1-Methyl-pyrrolidin-3-yl)methoxy]pyrid-3-yl}-4-oxo-4,5,6,7-tetrahydro-1H-indole-3-carboxamide]",melting point,,209 to 211 °C
"O=C(Nc1cccc(OCCCNC23CC4CC(CC(C4)C2)C3)c1)c1c[nH]c2c1C(=O)CCCC2 [Compound 183, N-[3-(3-Adamant-1-ylaminopropoxy)phenyl]4-oxo-1,4,5,6,7,8-hexahydro-cyclohepta[b]pyrrole-3-carboxamide]",melting point,,175 to 176 °C
"O=C(Nc1cnccc1OCc1cccnc1)c1c[nH]c2c1C(=O)CCCC2 [Compound 194, N-[4-(Pyrid-3-ylmethoxy)pyrid-3-yl]-4-oxo-1,4,5,6,7,8-hexahydro-cyclohepta[b]pyrrole-3-carboxamide]",melting point,,241 to 243 °C
"CCOC(=O)COc1ccc(NC(=O)c2c[nH]c3c2C(=O)CCC3)cc1F [Compound 222, N-[3-Fluoro-4-(2-ethoxy-2-oxoethoxy)phenyl]-4-oxo-4,5,6,7-tetrahydro-1H-indole-3-carboxamide]",melting point,,192 to 196 °C
"O=C(O)COc1ccc(NC(=O)c2c[nH]c3c2C(=O)CCC3)cc1F [Compound 223, N-[3-Fluoro-4-(2-hydroxy-2-oxoethoxy)phenyl]-4-oxo-4,5,6,7-tetrahydro-1H-indole-3-carboxamide]",melting point,,246 to 248 °C
"CCN(CC)C(=O)COc1ccc(NC(=O)c2c[nH]c3c2C(=O)CCC3)cc1F [Compound 225, N-[3-Fluoro-4-(2-diethylamino-2-oxoethoxy)phenyl]-4-oxo-4,5,6,7-tetrahydro-1H-indole-3-carboxamide]",melting point,,193 to 196 °C
"CCCN(CCC)CCNC(=O)COc1ccc(NC(=O)c2c[nH]c3c2C(=O)CCC3)cc1 [Compound 228, N-[2-(dipropylamino)ethyl]-2-{4-[(4-oxo-(4,5,6,7-tetrahydroindol-3-yl))carbonylamino]phenoxy}acetamide]",melting point,,148 to 150 °C
"O=C(Nc1ccc(OCC(=O)N2CCOCC2)c(F)c1)c1c[nH]c2c1C(=O)CCC2 [Compound 232, N-[3-fluoro-4-(2-morpholin-4-yl-2-oxoethoxy)phenyl](4-oxo-(4,5,6,7-tetrahydroindol-3-yl))carboxamide]",melting point,,110 °C

# Source: patent US6515140B2, “Fused pyrrolecarboxamides; a new class of GABA brain receptor ligands” (Neurogen Corporation, priority 1996, dated 2003)
